One block for each compound: values may come before it.
Columns and labels:
[1] = target: Glycogen synthase kinase-3 alpha (Homo sapiens, UniProt P49840); experiment: Inhibition of human recombinant GSK3alpha
[2] = target: Glycogen synthase kinase-3 beta (Homo sapiens) (UniProt P49841); experiment: Inhibition of human recombinant GSK3beta
[3] = target: Cyclin-dependent kinase 9/cyclin T1 (Homo sapiens); experiment: Inhibition of CDK9/cyclin T1 (unknown origin)

Glycogen synthase kinase-3 alpha, sequence (P49840 whole entry): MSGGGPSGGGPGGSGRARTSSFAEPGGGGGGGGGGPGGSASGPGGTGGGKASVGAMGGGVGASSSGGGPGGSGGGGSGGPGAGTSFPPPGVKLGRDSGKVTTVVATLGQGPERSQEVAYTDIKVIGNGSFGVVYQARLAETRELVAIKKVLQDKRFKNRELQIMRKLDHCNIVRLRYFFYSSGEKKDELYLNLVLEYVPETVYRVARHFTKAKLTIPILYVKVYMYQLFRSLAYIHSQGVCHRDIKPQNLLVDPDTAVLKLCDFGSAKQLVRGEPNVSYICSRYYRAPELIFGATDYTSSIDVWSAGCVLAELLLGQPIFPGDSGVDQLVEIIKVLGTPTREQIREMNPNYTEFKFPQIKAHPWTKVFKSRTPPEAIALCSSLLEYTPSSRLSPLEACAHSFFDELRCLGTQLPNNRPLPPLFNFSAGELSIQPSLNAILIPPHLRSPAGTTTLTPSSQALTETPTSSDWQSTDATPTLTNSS
Glycogen synthase kinase-3 beta (Homo sapiens), sequence (P49841 whole entry, looked up): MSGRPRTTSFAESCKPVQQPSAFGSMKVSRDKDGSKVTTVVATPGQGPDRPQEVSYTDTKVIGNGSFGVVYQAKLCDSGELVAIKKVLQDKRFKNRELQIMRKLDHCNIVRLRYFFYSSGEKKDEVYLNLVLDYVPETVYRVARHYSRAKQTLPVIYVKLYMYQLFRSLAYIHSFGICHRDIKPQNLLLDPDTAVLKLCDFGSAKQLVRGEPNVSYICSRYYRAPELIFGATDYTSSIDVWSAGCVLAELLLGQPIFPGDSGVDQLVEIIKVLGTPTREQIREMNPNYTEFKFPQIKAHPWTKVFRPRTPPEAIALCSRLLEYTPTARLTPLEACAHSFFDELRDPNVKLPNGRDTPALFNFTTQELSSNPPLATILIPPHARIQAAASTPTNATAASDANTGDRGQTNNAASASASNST

IC50 [1]: 2.3 µM
SMILES: COc1ncccc1C(=O)Nc1cc(S(C)(=O)=O)ccc1N1CCC(Oc2ccc(F)cc2F)CC1 [Name not given]

IC50 [2]: 9.1 µM
SMILES: CCN1CCC(NC(=O)c2c(C)noc2C(C)C)CC1 [Name not given]

IC50 [3]: 5.71 µM
SMILES: COc1cc(CC(=O)Nc2cc(C3CCC3)[nH]n2)cc(OC)c1OC
